Test results as given in patent publication US10799508B2, “Methods for treating cancer using HSP90 inhibitors” (AI Therapeutics, Inc., priority 2017, dated 2020).

B1: IFN-γ: human interferon-gamma used to induce PD-L1 (protein, UniProt P01579 24-161, looked up)
Interferon gamma: QDPYVKEAENLKKYFNAGHSDVADNGTLFLGILKNWKEESDRKIMQSQIVSFYFKLFKNFKDDQSIQKSVETIKEDMNVKFFNSNKKKRDDFEKLTNYSVTDLNVQRKAIHELIQVMAELSPAAKTGKRKRSQMLFRG

Tests used:
[1] = test system: IFN-γ-induced PD-L1 expression in SK-MEL-28 cells; assay: 10-point dose response validation of IFN-γ-induced PD-L1 signal; assay type: cell-based, human; details: 48 h; for IFN-γ-induced PD-L1 signal: SK-MEL-28, 10-point dose response 9.8-5000 nM, FIG. 1A-D; for concentration required to inhibit IFN-γ-induced PD-L1 expression compared with concentration required to affect cell proliferation: SK-MEL-28, IFN-γ 50 ng/ml, FIG. 2A-E
Description: FIG. 1A-D. Validation dose response curves of HSP90 inhibitors tested in the original screen. A) CNF2024; B) PF04928473; C) tanespimycin; D) HSP-990. SK-MEL-28 cells treated with IFN-γ and with the indicated HSP90 inhibitor at different concentrations. Cells were assayed for cell viability (square, % viability on left axis) and PD-L1 expression (circle, Z-score right axis) at 48 h after treatment of IFN-γ and/or HSP90 inhibitors. Quadruplicate wells were used for determination of cell viability and PD-L1 expression. Average values were plotted. […] Lysates were probed with anti PD-L1 antibody.
(§1) FIG. 2A-E. Dose response curves of 5 additional HSP90 inhibitors. A) STA-9090, B) CUDC-305, C) MPC-3100, D) XL-888 and E) TAS-116. SK-MEL-28 cells treated with IFN-γ (50 ng/ml) and with the indicated HSP90 inhibitor at different concentrations. Cells were assayed for cell viability (square, % viability on left axis) and PD-L1 expression (circle, Z-score right axis) at 48 h after treatment of IFN-γ and/or HSP inhibitors. Quadruplicate wells were used for determination of cell viability and PD-L1 expression. Average values were plotted.
After assessment for viability, plates were then prepared for immunostaining. Briefly, 16% paraformaldehyde (Electron Microscopy Sciences) was added to each well to a final concentration of 4%, for 10 minutes at room temperature. Following this time, the fix was aspirated and cells were washed 3 times with PBS. Cells were blocked using blocking solution (1% bovine serum albumin in PBS) for 30 minutes. After this time, the blocking reagent was aspirated and immunostaining reagent added. The immunostaining reagent consisted of a biotin conjugated-PD-L1 antibody (eBioscience) diluted in blocking buffer. Plates were sealed and kept at 4 C overnight. The following day, plates were washed 3 times with PBS followed by addition of a streptavidin-luciferase fusion protein (Invivogen) diluted in blocking buffer, for 1 h at room temperature. After this step, the plates were washed 3 times with PBS. After the final wash, PBS was aspirated and 30 uL of QUANTI-Luc™ (Invivogen) was added per well. Plates were immediately read on a plate reader (Victor 3V plate reader, 0.1s) and luciferase activity measured.
The raw PD-L1 intensity (the luciferase readout) corresponding to drug screen plates was normalized to blank plates containing only IFN-γ-treated wells, and the resulting ratio was used for the calculation of Z-scores.
(§2) These 4 HSP90 inhibitors were validated using the same experimental protocol employed above (using the SK-MEL-28 cells +/−IFN-γ in 384 well plates), with the only exception to the original assay design was that each drug was now tested in a 10-point dose response assay where the concentration of drug tested was 9.8-5000 nM (2 fold serial dilution). Cells were seeded and treated in quadruplicate. Viability was assessed after 48 h of treatment of four HSP 90 inhibitors and prior to harvesting the cells for testing PD-L1 signal, as described above.

[2] = test system: IFN-γ-induced PD-L1 expression in SK-MEL-28 cells; assay: High-content primary screen for small molecules that reduce IFN-γ induced PD-L1 expression; assay type: cell-based, human; details: SK-MEL-28, IFN-γ 50 ng/ml, drugs at 40, 480 and 5000 nM, viability >75%
Description: SK-MEL-28 cells (melanoma cell line; […] Cells were expanded in MEM (Corning) containing 10% FBS (Sigma) and 2 mM L-Glutamine. Frozen stocks of cells were prepared for direct use in the high-throughput screening (HTS) assay. Cells were harvested, pelleted and then resuspended in 95% FBS & 5% DMSO at a concentration 1×10^7 cells/ml. One ml aliquots were rate frozen to −80° C. at a rate of 1 degree per minute. These stocks were then transferred to vapor phase liquid nitrogen for long term storage. For screening, frozen cell vials were quickly thawed with continuous agitation in a at 37° C. water bath then re-suspended in the assay media at room temperature and centrifuged at 1,000 rpm for 5 minutes. The resulting pellet was re-suspended in appropriate volume and counted using an automated cell counter and diluted accordingly. Using a manually curated library of approximately 2500 individual drugs (2000 approved drugs, 500 unapproved drugs), drugs from the source plate were transferred to the destination plates (384-well assay plates—Corning #3712) using an ECHO 550 liquid handler (Labcyte). SK-MEL-28 cells (1750 cells per well in 30 μL of media), treated with IFN-g (50 ng/ml final) were added to these pre-formatted plates using a Multidrop™ Combi reagent dispenser (Thermofisher). […] Plates were centrifuged at 800 rpm for one minute before being incubated in a 5% CO2 humidified incubator at 37° C. After assessment for viability, plates were then prepared for immunostaining. Briefly, 16% paraformaldehyde (Electron Microscopy Sciences) was added to each well to a final concentration of 4%, for 10 minutes at room temperature. Following this time, the fix was aspirated and cells were washed 3 times with PBS. […] After this time, the blocking reagent was aspirated and immunostaining reagent added. […] Plates were sealed and kept at 4 C overnight. […] After this step, the plates were washed 3 times with PBS. After the final wash, PBS was aspirated and 30 uL of QUANTI-Luc™ (Invivogen) was added per well.

[3] = test system: MV-4-11, MOLM-16, TUR, U937, KMS-28, OCI-LY-19 and Z138 cell lines; assay: Synergy of MPC-0767 and venetoclax versus basal BCL-2 abundance; assay type: cell-based, human; details: 72 hours, CellTiter-Glo
Description: FIG. 12: Cell lines representing acute myeloid leukemia, multiple myeloma, diffuse large B cell lymphoma and mantle cell lymphoma were assayed for basal abundance of BCL-2 (Y axis) and a high/low threshold is shown by dashed line. Cell line sensitivity to venetoclax after 72 hour treatment as assessed by CellTiter-Glo (X axis) is denoted by EC50 values shown in parentheses. Following drug combination treatment of MPC-0767 and venetoclax, determination of synergy is shown by bar graphs in black (synergy observed) or grey (no synergy observed).
After 72 hour treatment with the indicated drug combinations, cell viability was assessed using CellTiter-Glo. […] The absolute EC75 for each single agent and drug combination was calculated using the R package DRC (Ritz et al., Dose-Response Analysis Using R. PLoS One. 2015. 10(12):e0146021; R Core Team, A language and environment for statistical computing. R Foundation for Statistical Computing, Vienna, Austria. 2017). […]
To test whether BCL-2 abundance is predictive of the synergy between HSP90 inhibitors and venetoclax observed here, we analyzed BCL-2 abundance in cell lines representing acute myeloid leukemia (MV-4-11, MOLM-16, TUR and U937), multiple myeloma (KMS-28), diffuse large B cell lymphoma (OCI-LY-19) and mantle cell lymphoma (Z138) under basal conditions using flow cytometry. […]

[4] = test system: PD-L1 cell surface expression in AML cell lines (PL-21, TUR, MOLM-14, MV-4-11); assay: Flow cytometry of IFN-γ-induced PD-L1 cell surface expression in AML cells; assay type: cell-based, human; details: 24 hours
Description: FIG. 13A-D: MPC-0767 blocks IFN-γ-induced PD-L1 expression in AML cells. A) PL-21, B) TUR, C) MOLM-14, D) MV-4-11 cells treated with MPC-0767 (2 μM), IFN-γ (50 ng/ml) or IFN-γ+MPC-0767 for 24 h before cells were harvested for assessment of PD-L1 cell surface expression.
To ascertain whether MPC-0767 can block IFN-γ-induced PD-L1 expression in AML cells, four AML cell lines harboring WT FLT3 (n=2) or FLT3-ITD (n=2) were treated with human IFN-γ (50 ng/ml) alone, MPC-0767 (2 μM) alone or the combination for 24 hours. Cells were harvested to determine PD-L1 cell surface expression by flow cytometry. Cells were also stained with a viability stain to gate on viable cells and exclude any dead cells. As shown in FIG. 13A-D, all cell lines induced PD-L1 cell surface expression in response to IFN-γ treatment (6-25 fold).

[5] = alamarBlue cell viability; assay type: cell-based; details: human, SK-MEL-28 cells, SK-MEL-28, highest concentration tested (1000 nM), IFN-γ 50 ng/ml
Description: as §1
44 h later, cell viability was determined using alamarBlue™ cell viability reagent (Thermofisher), according to the manufacturers protocol. Briefly, 3 μL of alamarBlue™ reagent was added to each well and plates were incubated for a further 4 h. The plates were read on a Victor ^3V plate reader (Perkin Elmer). Viability for each drug was expressed as a percentage by comparing drug-treated cells and untreated control cells (Set to 100%).
as §2

Molecule	IFN-γ-induced PD-L1 signal [1]	hit in the primary screen (reduction of IFN-γ-induced PD-L1 expression) [2]	concentration required to inhibit IFN-γ-induced PD-L1 expression compared with concentration required to affect cell proliferation [1]	viability at 48 h, 1 µM [5] [%]	also measured
C=CCNC1=C2C[C@@H](C)C[C@H](OC)[C@H](O)[C@@H](C)/C=C(\C)[C@H](OC(N)=O)[C@@H](OC)/C=C\C=C(/C)C(=O)NC(=CC1=O)C2=O [tanespimycin]	blocked	identified as hits	–	–	–
C[C@H](N)C(=O)O[C@@H](C)C(=O)N1CCC(CCn2c(Sc3cc4c(cc3Br)OCO4)nc3c(N)ncnc32)CC1 [MPC-0767]	–	–	–	–	synergy with venetoclax ([3]; cell lines with high BCL-2 levels): observed in 4 out of 4 cell lines; synergy with venetoclax ([3]; three cell lines with low BCL-2 levels): no synergy was observed; basal PD-L1 cell surface expression ([4]; MPC-0767 2 μM alone, four AML cell lines): did not significantly reduce; reduction of IFN-γ-induced PD-L1 cell surface expression ([4]; MPC-0767 2 μM with IFN-γ 50 ng/ml, range over four AML cell lines): 43-83%
COc1cccc(-c2cc(F)ccc2[C@H]2Cc3nc(N)nc(C)c3C(=O)N2)n1 [HSP-990]	blocked	identified as hits	–	–	–
COc1c(C)cnc(Cn2cnc3c(Cl)nc(N)nc32)c1C [CNF-2024]	blocked	identified as hits	–	–	–
CC1(C)CC(=O)c2c(C(F)(F)F)nn(-c3ccc(C(N)=O)c(N[C@H]4CC[C@H](O)CC4)c3)c2C1 [PF0498473]	blocked	identified as hits	–	–	–
CC[C@@H](C)Nc1cc(C(=O)NC2CC3CCC(C2)N3c2ccc(C(=O)C3CC3)cn2)c(C)cc1C(N)=O (stereo partly drawn) [XL-888]	–	–	far lower	> 80	–
CC(C)c1cc(-c2n[nH]c(=O)n2-c2ccc3c(ccn3C)c2)c(O)cc1O [STA-9090]	–	–	far lower	> 80	–
CCc1cc(C(N)=O)ccc1-n1nc(C(C)C)c2c(-n3cnc(-c4cnn(C)c4)c3)ccnc21 [TAS-116]	–	–	far lower	> 80	–
CN(C)c1cc2c(cc1Sc1nc3c(N)nccc3n1CCNCC(C)(C)C)OCO2 [CUDC-305]	–	–	far lower	> 80	–
B1	–	–	–	–	induction of PD-L1 cell surface expression ([4]; human IFN-γ 50 ng/ml alone, range over four AML cell lines): 6-25 fold
